Experimental data as given in patent US8962793B2, “ErbB interface peptidomimetics and methods of use thereof” (The Trustees of the University of Pennsylvania, priority 2001, dated 2015).
Like-named read-outs stand apart in the source and are kept apart here. Bridge positions count the residues as written; N and C are the ends. Peptide text beside a SMILES is read from it.

How the values were obtained:
[1] = biological target: T1, erbB3-erbB1 heteromerization (Homo sapiens, UniProt P00533); experiment: SPR inhibition of HRGβ1-induced binding of ErbB3 to immobilized ErbB1; conditions: peptide 10 μm, ErbB3 300 nm, HRGβ1 5 μM
T1 construct: the ectodomains of erbB receptors were immobilized on the surface chip; erbB1 and erbB3: gift of Dr. Mark A. Lemmon
T1 sequence (P00533 25-645 limits assumed, one chain of several): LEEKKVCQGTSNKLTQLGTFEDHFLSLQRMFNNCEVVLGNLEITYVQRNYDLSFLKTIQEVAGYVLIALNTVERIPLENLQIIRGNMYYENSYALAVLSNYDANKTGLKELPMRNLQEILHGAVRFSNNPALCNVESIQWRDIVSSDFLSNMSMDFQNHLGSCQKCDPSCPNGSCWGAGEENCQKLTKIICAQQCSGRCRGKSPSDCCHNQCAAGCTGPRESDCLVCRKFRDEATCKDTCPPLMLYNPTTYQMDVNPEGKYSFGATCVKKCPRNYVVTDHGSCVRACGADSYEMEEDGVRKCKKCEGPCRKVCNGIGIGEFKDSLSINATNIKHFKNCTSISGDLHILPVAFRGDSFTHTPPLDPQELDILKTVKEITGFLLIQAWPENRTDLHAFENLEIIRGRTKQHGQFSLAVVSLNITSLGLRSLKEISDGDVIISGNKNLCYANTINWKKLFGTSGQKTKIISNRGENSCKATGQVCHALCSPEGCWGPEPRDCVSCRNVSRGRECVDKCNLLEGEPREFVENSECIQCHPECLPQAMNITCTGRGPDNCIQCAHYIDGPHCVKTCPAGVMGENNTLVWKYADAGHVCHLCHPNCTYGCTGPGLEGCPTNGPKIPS
Protocol: (§1) The effect of cysteine-knot mimetics on receptor self-associations, was examined using a Biacore assay in which the ectodomains of erbB receptors were immobilized on the surface chip and the ectodomain of erbB3 was injected at 300 nM concentrations either alone or in the presence of 5 μM hereglunin HRGβ1.
(§2) The effect of the erbB peptides on heregulin-induced receptor self-associations was studied by preinjecting them at 10 μM followed by injection of erbB3-HRGβ1 (FIG. 4; 1B, 2B, 3B).
(§3) Binding experiments were performed with the surface plasmon resonance based biosensor instrument Biacore 3000 (Biacore AB, Uppsala, Sweden), at 25° C. […] (erbB2) and Dr. Mark A. Lemmon, Department of Biochemistry and Biophysics, University of Pennsylvania School of Medicine (erbB1 and erbB3). Immobilization of the erbB receptors in the sensor surface was performed following the standard amine coupling procedure according to manufacturer's instructions. Briefly, 35 μl of a solution containing 0.2 M N-ethyl-N′-(dimethylaminopropyl) carbodiimide (EDC) and 0.05 M N-hydroxysuccinimide (NHS), were injected at a flow rate of 5 μl/min to activate carboxyl groups on the sensor chip surface. Receptors (40 ng/ml in 10 mM NaOAc buffer, pH 5.0) were flowed over the chip surface at a flow rate of 20 μl/min until the desired level bound protein was reached. Unreacted protein was washed out and unreacted activated groups were blocked by the injection of 35 μl of 1 M ethanolamine at 5 μl/min. […] A reference surface was generated simultaneously under the same conditions but without receptor injection and used as a blank to correct for instrument and buffer artifacts. Peptides were injected at variable concentrations at 20 μl/min flow rate and binding to the receptors immobilized on the chip was monitored in real time. Each sensorgram consists of an association phase (first 240 s), reflecting binding of the injected peptide to the receptor, followed by a dissociation phase (300 s), during which the running buffer is passed over the chip and the bound peptide is being washed off the receptor surface.

ErbB2 = biological target: T2, ErbB2 (Homo sapiens, UniProt P04626); experiment: Surface plasmon resonance (Biacore) binding to immobilized ErbB2 extracellular domain
T2 construct: provided by Dr. Che Law, Xcyte Therapeutics, Seattle
T2 sequence (P04626 23-652 limits assumed): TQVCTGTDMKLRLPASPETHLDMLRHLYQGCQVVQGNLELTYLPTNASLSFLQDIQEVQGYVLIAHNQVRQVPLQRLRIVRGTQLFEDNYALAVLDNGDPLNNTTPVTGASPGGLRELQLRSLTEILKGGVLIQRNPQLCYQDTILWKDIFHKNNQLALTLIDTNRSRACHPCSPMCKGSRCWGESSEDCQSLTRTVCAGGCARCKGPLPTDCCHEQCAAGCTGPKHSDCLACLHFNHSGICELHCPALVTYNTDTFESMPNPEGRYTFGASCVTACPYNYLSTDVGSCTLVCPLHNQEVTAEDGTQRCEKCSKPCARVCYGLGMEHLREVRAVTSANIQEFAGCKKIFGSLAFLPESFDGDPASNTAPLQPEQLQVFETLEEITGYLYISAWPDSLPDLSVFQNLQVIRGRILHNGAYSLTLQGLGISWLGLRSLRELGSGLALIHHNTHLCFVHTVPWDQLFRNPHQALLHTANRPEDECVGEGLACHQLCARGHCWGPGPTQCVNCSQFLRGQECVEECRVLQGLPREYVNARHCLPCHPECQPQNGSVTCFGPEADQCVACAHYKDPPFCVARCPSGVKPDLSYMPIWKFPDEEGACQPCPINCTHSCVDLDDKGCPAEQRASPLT
Protocol: The designed erbB peptides were tested for binding to erbB receptors using surface plasmon resonance (Biacore) technology (described supra) using soluble erbB-1 and erbB-3. The response was plotted in real time in the form of sensorgram curves. Dissociation constants (Kd) were determined as described (Park, et al. 2000, Nat. Biotechnol. 18:194-198).
A sensorgram for binding of B2-S22-APE peptide to erbB receptors immobilized on the sensor chip was performed.
as §3

ErbB1 = biological target: T3, ErbB1 (Homo sapiens, UniProt P00533); experiment: Surface plasmon resonance (Biacore) binding to immobilized ErbB1 extracellular domain
T3 construct: gift of Dr. Mark A. Lemmon, University of Pennsylvania School of Medicine
T3 sequence (P00533 25-645 limits assumed): as the sequence (P00533 25-645 limits assumed, one chain of several) above
Protocol: (§4) The designed erbB peptides were tested for binding to erbB receptors using surface plasmon resonance (Biacore) technology (described supra) using soluble erbB-1 and erbB-3. The response was plotted in real time in the form of sensorgram curves.
as §3

ErbB3 = biological target: T4, ErbB3 (Homo sapiens, UniProt P21860); experiment: Surface plasmon resonance (Biacore) binding to immobilized ErbB3 extracellular domain
T4 construct: gift of Dr. Mark A. Lemmon, University of Pennsylvania School of Medicine
T4 sequence (P21860 20-643 limits assumed): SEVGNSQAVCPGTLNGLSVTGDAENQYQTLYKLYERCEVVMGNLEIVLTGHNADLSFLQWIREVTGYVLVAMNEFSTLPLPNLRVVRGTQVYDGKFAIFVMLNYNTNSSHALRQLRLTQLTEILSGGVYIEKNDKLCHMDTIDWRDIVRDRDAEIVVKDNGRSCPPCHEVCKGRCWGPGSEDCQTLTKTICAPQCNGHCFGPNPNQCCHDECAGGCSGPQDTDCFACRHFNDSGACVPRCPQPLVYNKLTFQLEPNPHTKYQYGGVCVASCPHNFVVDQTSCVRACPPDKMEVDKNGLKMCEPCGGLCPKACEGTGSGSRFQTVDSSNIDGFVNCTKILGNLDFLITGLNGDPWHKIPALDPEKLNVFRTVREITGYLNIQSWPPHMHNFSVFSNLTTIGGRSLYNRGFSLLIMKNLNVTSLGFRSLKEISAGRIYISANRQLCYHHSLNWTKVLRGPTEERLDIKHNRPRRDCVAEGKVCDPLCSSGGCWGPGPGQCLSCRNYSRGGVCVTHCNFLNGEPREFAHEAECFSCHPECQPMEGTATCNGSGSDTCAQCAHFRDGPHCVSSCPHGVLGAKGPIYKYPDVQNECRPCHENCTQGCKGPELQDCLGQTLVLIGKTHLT
Protocol: as §4, §3

[2] = biological target: T5, erbB3-erbB3 homomerization (Homo sapiens, UniProt P21860); experiment: SPR inhibition of HRGβ1-induced binding of ErbB3 to immobilized ErbB3; conditions: peptide 10 μm, ErbB3 300 nm, HRGβ1 5 μM
T5 construct: the ectodomains of erbB receptors were immobilized on the surface chip; erbB3: gift of Dr. Mark A. Lemmon
T5 sequence (P21860 20-643 limits assumed): as above
Protocol: as §1, §2, §3

[3] = biological target: T6, erbB3-erbB2 heteromerization (Homo sapiens, UniProt P04626); experiment: SPR inhibition of HRGβ1-induced binding of ErbB3 to immobilized ErbB2; conditions: peptide 10 μm, ErbB3 300 nm, HRGβ1 5 μM
T6 construct: the ectodomains of erbB receptors were immobilized on the surface chip; erbB2: Dr. Che Law, Xcyte Therapeutics; erbB3: Dr. Mark A. Lemmon
T6 sequence (P04626 23-652 limits assumed, one chain of several): as the sequence (P04626 23-652 limits assumed) above
Protocol: as §1, §2, §3

erbB2-SbdIV = biological target: T7, erbB2-SbdIV (Homo sapiens, UniProt P04626); experiment: Surface plasmon resonance binding to immobilized recombinant erbB2-SbdIV
T7 construct: The DNA fragment encoding the subdomain IV of erbB2 (erbB2-SbdIV) was generated by polymerase chain reaction; GST (N); made in house; host or cells: Escherichia coli BL-21 (DE3), vector pGEX-5X-3
T7 sequence (P04626 509-657): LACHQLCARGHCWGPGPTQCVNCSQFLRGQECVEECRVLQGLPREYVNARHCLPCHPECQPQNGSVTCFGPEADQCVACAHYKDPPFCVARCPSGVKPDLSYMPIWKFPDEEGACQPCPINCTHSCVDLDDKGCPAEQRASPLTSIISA
Excerpt: Since erbB peptides are derived from subdomain IV of different erbB receptors, this fact indicates direct involvement of subdomain IV in receptor-receptor interactions between the members of erbB receptor family.
The DNA fragment encoding the subdomain IV of erbB2 (erbB2-SbdIV) was generated by polymerase chain reaction. The upstream primer was 5′-[…]-3′ [SEQ ID NO: 44] and the downstream primer was 5′-[…]-3′. [SEQ ID NO: 45] These two primers were designed to include BamHI and Not I restriction sites, respectively, for inframe insertion into the BamHI/Not I linearized pGEX-5X-3 vector. Recombinant vector was used to infect Escherichia coli BL-21 (DE3). 100 ml of the 2XYT medium were inoculated with 10 ml of the overnight culture and grown at 37° C. until the OD600 of 0.4-0.5 was reached. IPTG was added to the medium at the final concentration of 0.1 mM and grown for 2 hrs. The cells were spun down by centrifugation at 4,000 g for 10 min and resuspended with 5 ml of cold PBS (with DTT, PMSF and aprotinin at the final concentration of 5 mM, 1 mM and 1 μg/ml respectively). After sonication on ice, Triton X-100 was added to the final concentration of 1% and the solution was rocked at 4° C. for 1 hr and centrifuged at 10,000 g for 10 min. 100 μl of glutathione sepharose bead was then added to the supernatant. It was rocked at 4° C. for 2-4 hrs, centrifuged and washed three times with PBS. 100 μl elution buffer was added followed by rotation for 10 min at room temperature, centrifugation at 300 g for 1 min and collection of the supernatant. Elutions were repeated three times and combined.
Binding experiments were performed with the surface plasmon resonance based biosensor instrument Biacore 3000 (Biacore AB, Uppsala, Sweden), at 25° C. Recombinant purified erbB receptors were provided by Dr. Che Law, Xcyte Therapeutics, Seattle, Wash. […] Peptides were injected at variable concentrations at 20 μl/min flow rate and binding to the receptors immobilized on the chip was monitored in real time. […]

[4] = immobilized extracellular domain, surface plasmon resonance, read-out: KD (μM) ErbB2
[5] = immobilized extracellular domain, surface plasmon resonance, read-out: KD (μM) ErbB1
[6] = immobilized extracellular domain, surface plasmon resonance, read-out: KD (μM) ErbB3
[7] = FIG. 3A, erbB receptors immobilized on the sensor chip, global fitting to 1:1 Langmurian interaction model
[8] = erbB2-SbdIV immobilized on the surface chip, FIG. 3B

Row | Compound | Percent Inhibition ErbB1 [1] | Kd (ErbB2; [4]) | Kd (ErbB1; [5]) | Kd (ErbB3; [6]) | Percent Inhibition ErbB3 [2] | Percent Inhibition ErbB2 [3] | koff (ErbB2; [7]) | kon (ErbB2; [7]) | Kd (ErbB2; KD (μM) ErbB2, immobilized extracellular domain, surface plasmon resonance) | Kd (ErbB2; dissociation constant (Kd), FIG. 3A, koff/kon ratio) | Kd (ErbB1) | Kd (ErbB3) | Kd (erbB2-SbdIV) | koff (erbB2-SbdIV; [8]) | kon (erbB2-SbdIV; [8])
1 | CC[C@H](C)[C@@H]1NC(=O)[C@H](Cc2ccccc2)NC(=O)[C@@H](NC(=O)[C@@H](N)Cc2ccc(O)cc2)CSSC[C@@H](C(=O)N[C@@H](Cc2ccc(O)cc2)C(N)=O)NC(=O)[C@H](CC(=O)O)NC(=O)[C@@H]2CCCN2C(=O)[C@H](CC(=O)O)NC(=O)[C@H](C)NC(=O)[C@H](Cc2ccc(O)cc2)NC(=O)[C@H](CCCCN)NC(=O)[C@H](Cc2ccccc2)NC1=O [B4-S22-AFD] (H-YCFIFKYADPDCY-NH2; disulfide 2-12) | 60.3% | 0.639 µM | 0.583 µM | 0.394 µM | 72.8% | 54.2% | – | – | – | – | – | – | – | – | –
2 | CC[C@H](C)[C@@H]1NC(=O)[C@H](Cc2ccc(O)cc2)NC(=O)[C@@H](NC(=O)[C@@H](N)Cc2ccccc2)CSSC[C@@H](C(=O)N[C@@H](Cc2ccc(O)cc2)C(N)=O)NC(=O)[C@H](CCC(N)=O)NC(=O)[C@H](CC(=O)O)NC(=O)[C@H](CCC(=O)O)NC(=O)[C@H](C(C)C)NC(=O)[C@H](CCC(=O)O)NC(=O)CNC1=O [CD4-G, reference compound] (H-FCYIGEVEDQCY-NH2; disulfide 2-11) | 2.4% | > 1000 µM | > 1000 µM | > 1000 µM | 3.1% | −1.2% | – | – | – | – | – | – | – | – | –
3 | CC(C)C[C@@H]1NC(=O)[C@@H](NC(=O)[C@@H](N)Cc2ccc(O)cc2)CSSC[C@@H](C(=O)N[C@@H](Cc2ccc(O)cc2)C(N)=O)NC(=O)CNC(=O)[C@H](C)NC(=O)[C@H](CC(=O)O)NC(=O)[C@H](C)NC(=O)[C@H](Cc2ccc(O)cc2)NC(=O)[C@H](CCCCN)NC(=O)[C@H](Cc2c[nH]c3ccccc23)NC(=O)[C@H](C(C)C)NC1=O [B1-S22-ALG] (H-YCLVWKYADAGCY-NH2; disulfide 2-12) | 65.2% | 0.371 µM | 0.449 µM | 0.288 µM | 75.1% | 71.4% | – | – | – | – | – | – | – | – | –
4 | CC[C@H](C)[C@@H]1NC(=O)[C@@H]2CCCN2C(=O)[C@@H](NC(=O)[C@@H](N)Cc2ccc(O)cc2)CSSC[C@@H](C(=O)N[C@@H](Cc2ccc(O)cc2)C(N)=O)NC(=O)[C@H](CCC(N)=O)NC(=O)[C@H](C(C)C)NC(=O)[C@H](CC(=O)O)NC(=O)[C@@H]2CCCN2C(=O)[C@H](Cc2ccc(O)cc2)NC(=O)[C@H](CCCCN)NC(=O)[C@H](Cc2ccc(O)cc2)NC1=O [B3-S22-APQ] (H-YCPIYKYPDVQCY-NH2; disulfide 2-12) | 69.0% | 0.549 µM | 0.472 µM | 1.07 µM | 32.4% | 58.1% | – | – | – | – | – | – | – | – | –
5 | CC[C@H](C)[C@@H]1NC(=O)[C@@H]2CCCN2C(=O)[C@@H](NC(=O)[C@@H](N)Cc2ccc(O)cc2)CSSC[C@@H](C(=O)N[C@@H](Cc2ccc(O)cc2)C(N)=O)NC(=O)[C@H](CCC(=O)O)NC(=O)[C@H](CCC(=O)O)NC(=O)[C@H](CC(=O)O)NC(=O)[C@@H]2CCCN2C(=O)[C@H](Cc2ccccc2)NC(=O)[C@H](CCCCN)NC(=O)[C@H](Cc2c[nH]c3ccccc23)NC1=O [B2-S22-APE] (H-YCPIWKFPDEECY-NH2; disulfide 2-12) | 80.3% | – | – | – | 42.7% | 51.1% | 0.000685 s⁻¹ | 3240 M⁻¹ s⁻¹ | 1.53 µM | 0.21 µM | 0.21 µM | 1.4 µM | 1890 nM | 0.00307 s⁻¹ | 1620 M⁻¹ s⁻¹
